Consider 19 compounds from PubChem BioAssay (NCI).

Holding throughout (test): inhibition of tumour cell growth, NCI panel, 48 h
For test [1], the system named is COLO 205 colon.
Test [2] deals with OVCAR-8 ovarian.
Test [3] has as its system NCI-H23 lung.
Test [4] concerns NCI-H226 lung.
Test [5] deals with CCRF-CEM leukemia.
Test [6] deals with IGROV1 ovarian.
Test [7] deals with HT29 colon.
Test [8] relates to BT-549 breast.
For test [9], the system named is HCT-116 colon.
Test [10] relates to HL-60(TB) leukemia.

The structures appear in SMILES notation.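 Compound exposure: 48 hours, 5 concentrations, 96-well plates. Abbreviation: GI50, concentration required for 50% inhibition of growth. TGI is the concentration that stops growth completely.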

As to `Nc1nc(Cl)cc(NCC2(O)CCCC2)n1`, the TGI in [1], in test [2], in [3], in test [4], in test [5] and in test [6] was above 100 µM throughout. The TGI in test [7], in test [8], in test [9] and in test [10] was above 100 µM throughout.
As to `NS(=O)(=O)c1ccc(NNc2c3ccccc3nc3c(C(=O)Nc4ccc(S(=O)(=O)Nc5ncccn5)cc4)cccc23)cc1`, the TGI in [1], in test [2], in test [3], in test [4], in test [5] and in test [6] was above 25 µM each time. In addition, the TGI in [7], in [8], in test [9] and in test [10] was above 25 µM in each case.
For `CC1OC2OC3C(OCC(O)C3O)OC(=O)[C@]34CCC(C)(C)CC3C3=CCC5[C@@]6(C)C[C@H](O)[C@H](OC7OC(CO)C(O)C(O)C7OC7OCC(OC(=O)CC(C)(O)CC(=O)OC1C(OC1OC(CO)C(O)C(O)C1O)C2O)C(O)C7O)[C@@](C)(CO)C6CC[C@@]5(C)[C@]3(C)CC4` (stereo partly drawn), the TGI was determined as 7.61 µM in [1]; 23.6 µM in test [2]; 14.1 µM in test [3]; 34 µM in test [4]; 28 µM in test [5]; 16.2 µM in test [6]. The TGI in test [7] was 19.4 µM; in test [8] it was 21.1 µM; in test [9] it was 16.5 µM; in test [10] it was 6.29 µM.
In the case of `NC(=O)CO/N=C1/C(c2c(O)[nH]c3ccccc23)=Nc2ccccc21`, the TGI in test [1], in test [2], in test [3], in [4], in test [5] and in [6] was above 100 µM throughout. Moreover, the TGI in [7], in test [8], in [9] and in test [10] was above 100 µM in each case.
As to `CC(=O)/C(=C\c1ccc(Cl)c(Cl)c1)C(=O)C(C)CN(C)C` (stereo not drawn), the TGI turned out to be 24.4 µM in [1]; 6.45 µM in test [2]; 30.6 µM in test [3]; 14.9 µM in test [4]; 0.116 µM in test [5]; 4.88 µM in test [6]. Also, the TGI in test [7] was 24.1 µM; in test [8], 8.92 µM; in test [9], 6.79 µM; in [10] it was 5.36 µM.
In the case of `O=C(NNCc1ccc(Cl)cc1)Nc1cccc2ccccc12`, the TGI in test [1], in [2], in test [3], in test [4], in [5] and in [6] was above 100 µM in each case. The TGI in test [7], in test [8], in [9] and in [10] was above 100 µM in each case.
`CN1C(=O)C(O)CC1c1cccc(C(F)(F)F)c1` (stereo not drawn): the TGI in [1], in [2], in test [3], in test [4], in [5] and in test [6] was above 100 µM each time. The TGI in test [7], in test [8], in [9] and in test [10] was above 100 µM in each case.
Turning to `O=C1CC(n2cccc2)c2c(Br)sc(Br)c21` (stereo not drawn), the TGI in test [1] stood at 30.7 µM; in test [2], 37.8 µM; in test [3], 27.9 µM; in test [4], 42.2 µM; in test [5] it was 26.8 µM; in test [6] it was 32.7 µM. For the same compound, the TGI in test [7] came out at 32.1 µM; in [8], 34.3 µM; in [9], 28.7 µM; in test [10] it was 41.4 µM.
In the case of `CC1CC/C(=C\c2ccc(Cl)cc2)c2nc(N)c(C#N)c(-c3ccc(Cl)cc3)c21` (stereo not drawn), the TGI in test [1], in test [2], in [3], in test [4], in test [5] and in test [6] was above 100 µM each time. Further, the TGI was above 100 µM in test [7], above 100 µM in [8], above 100 µM in [9] and 15.4 µM in test [10].
For the compound `COC(=O)c1c(-c2ccc(Cl)cc2)cc2c3ccccc3n(C)c2c1C(=O)OC`, the TGI in [1], in test [2], in test [3], in [4], in test [5] and in test [6] was above 100 µM each time. In addition, the TGI in [7], in [8], in test [9] and in test [10] was above 100 µM throughout.
As for `C=C1C(=O)O[C@H]2[C@H]3O[C@@H](C[C@@H]12)[C@](C)(O)CC[C@@H]1O[C@@]1(C)CCC[C@H]3C`, the TGI was 30 µM in test [1]; 47.5 µM in test [2]; 41.7 µM in test [3]; 60 µM in test [4]; 58.2 µM in [5]; 46.2 µM in test [6]. The TGI in [7] was 68.6 µM; in test [8], 31.5 µM; in test [9], 27.8 µM; in [10], above 100 µM.
For `C=CC1CN2CCC1CC2C(O)c1ccnc2ccccc12` (stereo not drawn), the TGI in [1], in [2], in test [3], in [4], in [5] and in test [6] was above 100 µM each time. In addition, the TGI in [7], in test [8], in test [9] and in test [10] was above 100 µM each time. The GI50 in test [5], in test [6] and in test [7] was above 100 µM each time.
Take `Cc1[nH]c(=O)[nH]c(=S)c1C(=O)Nc1cccc2cc3ccccc3cc12`: the TGI in test [1], in [2], in test [3], in [4], in test [5] and in test [6] was above 100 µM in each case. In addition, the TGI in test [7], in test [8], in [9] and in test [10] was above 100 µM throughout.
For the compound `C/C(Nc1ccc(Cl)cc1Cl)=C1/CCOC1=O`, the TGI in test [1], in test [2], in [3], in test [4], in [5] and in [6] was above 100 µM throughout. Moreover, the TGI was above 100 µM in test [7], 63.3 µM in test [8], above 100 µM in [9] and above 100 µM in test [10].
For `CCOC(=O)c1cnccc1CC1(C#N)c2ccccc2C=CN1C(=O)c1ccccc1` (stereo not drawn), the TGI in test [1] is above 100 µM; in test [2] it was 37.2 µM; in test [3] it was above 100 µM; in test [4], above 100 µM; in test [5], above 100 µM; in test [6] it was 39.9 µM. Further, the TGI in test [7] was 36 µM; in test [8] it was above 100 µM; in test [9] it was above 100 µM; in test [10], above 100 µM.
Turning to `N#Cc1nc(C#N)n(C(=O)c2ccccc2)c1NC(=O)c1ccccc1`, the TGI in test [1], in test [2], in test [3], in [4], in [5] and in test [6] was above 100 µM throughout. Moreover, the TGI in test [7], in test [8], in test [9] and in [10] was above 100 µM each time.
Turning to `N/C(=N\Nc1ccc(S(N)(=O)=O)cc1)c1cnccn1`, the TGI in test [1], in test [2], in [3], in test [4], in [5] and in [6] was above 100 µM in each case. For the same compound, the TGI in test [7], in test [8], in test [9] and in [10] was above 100 µM throughout.
Regarding `CC(C)C1(O)C(=O)N(c2c(F)c(F)c(F)c(F)c2F)C(=S)N1CCSc1ccccc1` (stereo not drawn), the TGI was determined as 32.9 µM in [1]; 33.8 µM in test [2]; 32.9 µM in [3]; 38.7 µM in test [4]; 31.7 µM in test [5]; 31.2 µM in test [6]. Also, the TGI in test [7] amounted to 32.5 µM; in [8], 30.4 µM; in [9] it was 32.1 µM; in test [10], 29.2 µM.
As for `COC(=O)c1c(C)nc(C)c(NO)c1-c1ccccc1C(F)(F)F`, the TGI in test [1] is 70.2 µM; in [2], 33.2 µM; in [3], 84.3 µM; in test [4], 76.7 µM; in test [5] it was above 100 µM; in [6], 35.6 µM. Besides, the TGI in test [7] was 33.7 µM; in [8], 30.8 µM; in test [9], 29.9 µM; in test [10] it was above 100 µM.
